US9630958B2, “Triazine compounds” (Sphaera Pharma Pte. Ltd., priority 2012, dated 2017)
pIC50: −log10 of the molar value.

Columns and labels:
[1] = target: T1, PI3 Kinase alpha (p110 alpha/p85 alpha) (Homo sapiens, UniProt P42336); test: PI3K TR-FRET assay (Transcreener ADP2); format: biochemical; conditions: for pIC50: PI3K alpha, 1 μM ATP, 50 μM PIP2; for inhibition at 1 µM: 1 uM compound, read-out: PI3K % Inhib@1 uM
T1 construct: purchased Invitrogen
Protocol: Enzymatic activity of PI3K alpha was measured using Time resolved Fluorescence resonance energy transfer (TR-FRET) assay. This assay utilizes ADP detection as a means to screen inhibitor potency of compounds. The Transcreener ADP2 TR-FRET Red Assay is a competitive immunoassay for ADP with a far-red, TR-FRET readout and it has been used for this purpose. The assay can be used for any enzyme class that produces ADP (Kinases, ATPases). It consists of ADP HiLyte647 Tracer, ADP^2 Antibody-Tb conjugate (800 nM), stop & detect buffer, 5 mM ATP, 5 mM ADP. The ADP HiLyte647 Tracer is bound to an ADP^2 Antibody-Tb conjugate. The excitation of the terbium complex in the UV range results in energy transfer to the tracer and emission at a higher wavelength after a time delay ADP produced by the target enzyme displaces the tracer which causes decrease in TR-FRET.
The reaction buffer used for the assay was 50 mM HEPES, pH 7.4.3 mM MgCl2, 0.05% CHAPS, 50 mM NaCl, 2 mM DTT, 1 mM EGTA. PI3 Kinase alpha (p110 alpha/p85 alpha) and PIP2 Substrate (diC8,) were procured from Invitrogen and Echelon respectively.
Kinase reactions were performed in 10 μl volume in Corning white 384 well plates. […] Reaction was initiated by the addition of substrate (PIP2) and ATP at final conc. of 50 μM and 1 μM ATP in the reaction respectively. Kinase reactions were allowed to proceed for 1 hour at room temperature before a 10 μL preparation of Transcreener ADP detection mix was added. Plate was incubated at room temperature for 1 hr. ADP-ATP standard curves were also prepared.
(§1) FRET signal was read in Envision Multilabel Reader with the following filters:
Excitation-330 nm and Emission 615 nm (donor) and 665 nm (acceptor). TR FRET Ratio (Fluorescence 665 nm/Fluorescence 615 nm) was converted to amount of product formed using the standard curve generated. Percentage inhibition was calculated and plotted against the concentration of inhibitor and data was fit to Non Linear Regression curve fit (sigmoidal dose response curve with variable slope-four parameters) using Graph pad prism 5 and IC50 was calculated for the compound.

Recombinant mTOR (FRAP1) = target: T2, Recombinant mTOR (FRAP1) (Homo sapiens, UniProt P42345); test: mTOR in vitro kinase assay (TR-FRET, phosphorylation of GFP-4E-BP1); format: biochemical; conditions: for inhibition at 1 µM: 1 uM compound, read-out: mTOR % Inhib@1 uM; for pIC50: 8 μM ATP, 400 nM GFP-4E-BP1
T2 construct: purchased Invitrogen
Protocol: Compounds were evaluated for mTOR activity using an in vitro kinase assay.
mTOR activity is measured in vitro by determining the level of phosphorylation of the protein substrate 4EBP-1. The phosphorylation of GFP-4E-BP1 at threonine residue is recognized by Ab Tb-Anti-p4EBP1, which results in time resolved fluorescence energy transfer (TR-FRET) between GFP and Terbium in the Ab-Protein complex.
Recombinant mTOR (FRAP1), Kinase reaction buffer, GFP-4E-BP1 and LanthaScreen Tb-anti-4E-BP1 (pThr46), TR FRET dilution buffer, Kinase Quench Buffer were obtained from Invitrogen.
Kinase reactions were performed in 10 μl volume in Corning white 384 well plates. […] The reaction was initiated by the addition of substrate (GFP-4E-BP1) and ATP at a final conc. of 400 nM and 8 μM ATP in the reaction respectively. The kinase reaction was allowed to proceed for 1 hour at room temperature before a 10 μL preparation of kinase quench buffer and Tb-labeled Antibody in TR-FRET dilution buffer was added. The final concentration of the antibody in the assay well is 2 nM and the final concentration of EDTA is 10 mM. The plate was incubated at room temperature for 1 h.
as §1
Excitation-330 nm and Emission 486 nm (donor) and 520 nm (acceptor).
TR FRET Ratio (Fluorescence 520 nm/Fluorescence 486 nm) was plotted against the concentration of inhibitor and data was fit to Non Linear Regression curve fit (sigmoidal dose response curve with variable slope-four parameters) using Graph Pad Prism 5.

T2 sequence (P42345 1360-2549 limits assumed): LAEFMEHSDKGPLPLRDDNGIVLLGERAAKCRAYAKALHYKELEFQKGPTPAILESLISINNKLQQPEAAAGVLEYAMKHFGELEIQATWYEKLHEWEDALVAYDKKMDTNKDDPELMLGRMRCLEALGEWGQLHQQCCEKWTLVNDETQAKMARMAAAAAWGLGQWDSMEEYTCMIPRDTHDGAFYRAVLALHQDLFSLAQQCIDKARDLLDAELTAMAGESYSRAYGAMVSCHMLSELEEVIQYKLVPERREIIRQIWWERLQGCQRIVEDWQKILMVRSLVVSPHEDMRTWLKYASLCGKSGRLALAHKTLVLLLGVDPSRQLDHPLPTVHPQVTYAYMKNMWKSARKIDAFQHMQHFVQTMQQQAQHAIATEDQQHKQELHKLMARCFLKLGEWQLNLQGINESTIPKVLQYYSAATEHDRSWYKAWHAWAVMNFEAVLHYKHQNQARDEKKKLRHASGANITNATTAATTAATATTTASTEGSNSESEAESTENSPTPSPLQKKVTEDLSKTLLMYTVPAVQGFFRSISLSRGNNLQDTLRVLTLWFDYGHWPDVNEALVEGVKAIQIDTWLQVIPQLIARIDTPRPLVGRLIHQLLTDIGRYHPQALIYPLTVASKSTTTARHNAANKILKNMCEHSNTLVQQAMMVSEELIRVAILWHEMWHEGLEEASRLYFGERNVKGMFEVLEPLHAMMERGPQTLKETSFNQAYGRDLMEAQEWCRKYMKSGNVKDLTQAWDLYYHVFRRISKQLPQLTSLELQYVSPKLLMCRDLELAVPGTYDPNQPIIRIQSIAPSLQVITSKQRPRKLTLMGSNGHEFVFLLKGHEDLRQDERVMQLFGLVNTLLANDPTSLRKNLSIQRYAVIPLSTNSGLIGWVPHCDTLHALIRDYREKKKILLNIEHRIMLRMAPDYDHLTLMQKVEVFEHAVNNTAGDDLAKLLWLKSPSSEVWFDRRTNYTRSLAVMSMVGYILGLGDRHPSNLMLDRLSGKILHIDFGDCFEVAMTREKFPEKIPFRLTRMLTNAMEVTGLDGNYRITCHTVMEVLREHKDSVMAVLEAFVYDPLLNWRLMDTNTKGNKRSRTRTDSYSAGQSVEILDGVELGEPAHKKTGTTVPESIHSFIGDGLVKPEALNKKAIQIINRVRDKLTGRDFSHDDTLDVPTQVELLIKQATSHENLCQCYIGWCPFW
T1 sequence (P42336 whole entry): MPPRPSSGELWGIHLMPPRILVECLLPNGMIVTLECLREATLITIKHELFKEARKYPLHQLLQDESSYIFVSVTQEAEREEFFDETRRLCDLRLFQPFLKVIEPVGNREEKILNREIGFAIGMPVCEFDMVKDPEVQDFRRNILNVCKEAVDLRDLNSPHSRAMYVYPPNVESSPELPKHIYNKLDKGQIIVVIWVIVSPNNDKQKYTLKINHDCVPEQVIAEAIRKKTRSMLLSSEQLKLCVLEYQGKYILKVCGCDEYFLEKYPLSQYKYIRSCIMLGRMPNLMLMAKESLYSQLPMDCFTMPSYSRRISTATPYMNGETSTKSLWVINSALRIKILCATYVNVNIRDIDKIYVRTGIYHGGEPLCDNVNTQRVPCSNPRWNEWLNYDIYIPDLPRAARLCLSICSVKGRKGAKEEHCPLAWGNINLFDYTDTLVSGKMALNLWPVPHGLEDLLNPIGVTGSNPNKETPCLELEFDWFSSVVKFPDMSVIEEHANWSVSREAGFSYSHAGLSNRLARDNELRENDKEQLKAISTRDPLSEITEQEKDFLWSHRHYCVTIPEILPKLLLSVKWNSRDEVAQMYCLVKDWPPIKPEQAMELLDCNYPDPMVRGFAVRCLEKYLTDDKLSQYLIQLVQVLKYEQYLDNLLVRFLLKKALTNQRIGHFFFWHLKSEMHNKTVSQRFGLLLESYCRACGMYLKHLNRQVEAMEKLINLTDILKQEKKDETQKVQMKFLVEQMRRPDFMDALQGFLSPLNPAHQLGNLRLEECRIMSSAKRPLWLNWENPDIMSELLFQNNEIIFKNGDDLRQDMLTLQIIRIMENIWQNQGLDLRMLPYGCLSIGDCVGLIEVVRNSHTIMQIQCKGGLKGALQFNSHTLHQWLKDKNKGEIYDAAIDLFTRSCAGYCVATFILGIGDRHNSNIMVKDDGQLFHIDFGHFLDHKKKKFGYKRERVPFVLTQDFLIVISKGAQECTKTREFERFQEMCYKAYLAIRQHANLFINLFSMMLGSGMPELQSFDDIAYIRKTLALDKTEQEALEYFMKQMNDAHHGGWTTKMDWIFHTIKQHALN
T1 sequence (P27986 whole entry partner): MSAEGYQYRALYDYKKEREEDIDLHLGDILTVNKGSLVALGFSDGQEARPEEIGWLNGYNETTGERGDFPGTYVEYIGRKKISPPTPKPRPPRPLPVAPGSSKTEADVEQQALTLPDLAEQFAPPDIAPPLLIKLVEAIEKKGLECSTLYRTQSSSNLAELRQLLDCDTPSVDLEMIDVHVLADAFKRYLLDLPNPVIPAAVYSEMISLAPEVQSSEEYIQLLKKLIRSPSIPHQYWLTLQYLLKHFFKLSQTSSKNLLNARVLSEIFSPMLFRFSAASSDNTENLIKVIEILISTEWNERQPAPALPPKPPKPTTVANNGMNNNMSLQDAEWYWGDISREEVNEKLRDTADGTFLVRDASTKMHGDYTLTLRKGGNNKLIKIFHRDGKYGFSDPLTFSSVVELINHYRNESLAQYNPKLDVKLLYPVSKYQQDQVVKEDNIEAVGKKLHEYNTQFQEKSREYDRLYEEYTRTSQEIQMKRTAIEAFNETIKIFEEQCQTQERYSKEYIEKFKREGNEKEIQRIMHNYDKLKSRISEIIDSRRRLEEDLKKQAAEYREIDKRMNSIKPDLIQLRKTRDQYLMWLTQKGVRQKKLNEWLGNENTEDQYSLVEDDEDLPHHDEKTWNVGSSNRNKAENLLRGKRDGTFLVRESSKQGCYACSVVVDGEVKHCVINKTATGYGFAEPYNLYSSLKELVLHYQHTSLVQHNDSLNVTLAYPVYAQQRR

SMILES	pIC50 [1]	inhibition at 1 µM (Recombinant mTOR (FRAP1)) [%]	pIC50 (Recombinant mTOR (FRAP1))	inhibition at 1 µM [1] [%]
Nc1ccc(-c2nc(SCc3ccccc3)nc(N3CCOCC3)n2)cn1 [Compound 10175, 5-(4-(benzylthio)-6-morpholino-1,3,5-triazin-2-yl)pyridine-2-amine]	> 6.00			
C[C@@H]1COCCN1c1nc(Oc2ccc(C(=O)N(C)C)cc2)nc(-c2cnc(N)s2)n1 [Compound 10004, (R)-4-(4-(2-aminothiazol-5-yl)-6-(3-methylmorpholino)-1,3,5-triazin-2-yloxy)-N,N-dimethylbenzamide]	< 6.00	< 50	> 6.00	
CN(C)C(=O)c1ccc(Oc2nc(-c3cnc(N)s3)nc(N3CCO[C@@H]4CCCC[C@H]43)n2)cc1 [Compound 10131, 4-(4-(2-aminothiazol-5-yl)-6-((4aR,8aR)-octahydrobenzo[b][1,4]oxazin-4-yl)-1,3,5-triazin-2-yloxy)-N,N-dimethylbenzamide]		< 50		< 50
CN(C)C(=O)c1ccc(Oc2nc(-c3cccc4[nH]ncc34)nc(N3[C@@H]4CC[C@H]3COC4)n2)cc1 [Compound 10174, 4-((4-((1R,5S)-3-oxa-8-azabicyclo[3.2.1]octan-8-yl)-6-(1H-indazol-4-yl)-1,3,5-triazin-2-yl)oxy)-N,N-dimethylbenzamide]	< 6.00	< 50		
CN(C)C(=O)c1ccc(Oc2nc(-c3cnc(N)cc3C(F)(F)F)nc(N3CCOCC3)n2)cc1 [Compound 10015, 4-(4-(6-amino-4-(trifluoromethyl)pyridin-3-yl)-6-morpholino-1,3,5-triazin-2-yloxy)-N,N-dimethylbenzamide]	> 6.00	> 50	> 6.00	
CC(C(=O)N(C)C)c1ccc(Oc2nc(-c3cnc(N)s3)nc(N3CCOCC3)n2)cc1 (stereo not drawn) [Compound 10115, 2-(4-(4-(2-aminothiazol-5-yl)-6-morpholino-1,3,5-triazin-2-yloxy)phenyl)-N,N-dimethylpropanamide]	> 6.00	> 50		
CN(C)C(=O)c1ccc(Oc2nc(-c3ccc(N)nc3)nc(N3CCCOCC3)n2)cc1 [Compound 10178, 4-((4-(6-aminopyridin-3-yl)-6-(1,4-oxazepan-4-yl)-1,3,5-triazin-2-yl)oxy)-N,N-dimethylbenzamide]	> 6.00	< 50		
CN(C)C(=O)c1ccc(Oc2nc(-c3cnc(N)s3)nc(N3CCO[C@@H]4CCC[C@@H]43)n2)c(F)c1 [Compound 10206]			> 6.00	
C[C@H]1COCCN1c1nc(Oc2ccc(C(=O)N(C)C)cc2)nc(-c2cnc(NC(=O)NC3CC3)s2)n1 [Compound 10093]	> 6.00		> 6.00	> 50
CN(C)C(=O)C1CCC(Oc2nc(-c3ccc4[nH]ccc4c3)nc(N3CCO[C@@H]4CCC[C@H]43)n2)CC1 (stereo partly drawn) [Compound 10150, (1S,4s)-4-(4-((4aR,7aR)-hexahydrocyclopenta[b][1,4]oxazin-4(4aH)-yl)-6-(1H-indol-5-yl)-1,3,5-triazin-2-yloxy)-N,N-dimethylcyclohexanecarboxamide]			< 5.00	< 50
C[C@@H]1CN(c2nc(Oc3ccc(C(=O)N(C)C)cc3F)nc(-c3ccc4[nH]ncc4c3)n2)[C@H](C)CO1 [Compound 10162, 4-(4-(1H-indazol-5-yl)-6-((2R,5R)-2,5-dimethylmorpholino)-1,3,5-triazin-2-yloxy)-3-fluoro-N,N-dimethylbenzamide]	< 5.00		< 6.00	
CC1COCCN1c1nc(Oc2ccc(C(=O)N(C)C)cc2F)nc(-c2ccc(N)nc2)n1 (stereo not drawn) [Compound 10207, 4-((4-(6-aminopyridin-3-yl)-6-(3-methylmorpholino)-1,3,5-triazin-2-yl)oxy)-3-fluoro-N,N-dimethylbenzamide]			> 6.00	
CN(C)C(=O)Cc1cccc(Oc2nc(-c3ccc(N)nc3)nc(N3CCOCC3)n2)c1 [Compound 10184, 2-(3-((4-(6-aminopyridin-3-yl)-6-morpholino-1,3,5-triazin-2-yl)oxy)phenyl)-N,N-dimethylacetamide]	> 6.00			
C[C@H]1COCCN1c1nc(Oc2ccc(C(=O)N(C)C)cc2)nc(-c2cnc(NC(=O)c3cccnc3)s2)n1 [Compound 10094, (S)-N-(5-(4-(4-(dimethylcarbamoyl)phenoxy)-6-(3-methylmorpholino)-1,3,5-triazin-2-yl)thiazol-2-yl)nicotinamide]				< 50
C[C@H]1CN(c2nc(Oc3ccc(C(=O)N(C)C)cc3F)nc(-c3cnc(N)s3)n2)C[C@H](C)O1 [Compound 10084, 4-((4-2-Aminothiazol-5-yl)-6-((2S,6S)-2,6-dimethylmorpholino)-1,3,5-triazin-2-yl)oxy-3-fluoro-N,N-dimethylbenzamide]			> 6.00	
C[C@@H]1CN(c2nc(Oc3ccc(C(=O)N(C)C)cc3F)nc(-c3cnc(N)s3)n2)[C@H](C)CO1 [Compound 10205, 4-((4-(2-aminothiazol-5-yl)-6-((2R,5R)-2,5-dimethylmorpholino)-1,3,5-triazin-2-yl)oxy)-3-fluoro-N,N-dimethylbenzamide]			> 6.00	
CN(C)C(=O)c1cccc(Oc2nc(-c3ccc(N)nc3)nc(N3CCOCC3)n2)c1 [Compound 10183, 3-((4-(6-aminopyridin-3-yl)-6-morpholino-1,3,5-triazin-2-yl)oxy)-N,N-dimethylbenzamide]	> 6.00			
CN(C)C(=O)c1ccc(Oc2nc(-c3ccc(NN)nc3)nc(N3CCOCC3)n2)cc1 [Compound 10177, 4-((4-(6-hydrazinylpyridin-3-yl)-6-morpholino-1,3,5-triazin-2-yl)oxy)-N,N-dimethylbenzamide]	> 6.00			
CN(C)C(=O)c1ccc(Oc2nc(-c3cnc(N)s3)nc(N3CCOCC34CCCC4)n2)c(F)c1 [Compound 10083, 4-((4-(2-Aminothiazol-5-yl)-6-(9-oxa-6-azaspiro[4.5]decan-6-yl)-1,3,5-triazin-2-yl)oxy)-3-fluoro-N,N-dimethylbenzamide]	> 6.00			
CN(C)C(=O)N1CCC(COc2nc(-c3ccc(N)nc3)nc(N3CCOCC3)n2)C1 (stereo not drawn) [Compound 10187, 3-(((4-(6-aminopyridin-3-yl)-6-morpholino-1,3,5-triazin-2-yl)oxy)methyl)-N,N-dimethylpyrrolidine-1-carboxamide]	> 6.00			
C[C@@H]1CN(c2nc(Oc3ccc(C(=O)N(C)C)cc3F)nc(-c3cnc(N)s3)n2)C[C@@H](C)O1 [Compound 10070, 4-((4-2-Aminothiazol-5-yl)-6-((2R,6R)-2,6-dimethylmorpholino)-1,3,5-triazin-2-yl)oxy-3-fluoro-N,N-dimethylbenzamide]			> 6.00	
CN(C)C(=O)N1CCC(Oc2nc(-c3ccc(N)nc3)nc(N3CCOCC3)n2)C1 (stereo not drawn) [Compound 10186, 3-((4-(6-aminopyridin-3-yl)-6-morpholino-1,3,5-triazin-2-yl)oxy)-N,N-dimethylpyrrolidine-1-carboxamide]	> 6.00			
Nc1ncc(-c2nc(N3CCOCC3)nc(N3CCNC(=O)CC3)n2)s1 [Compound 10198, 1-(4-(2-aminothiazol-5-yl)-6-morpholino-1,3,5-triazin-2-yl)-1,4-diazepan-5-one]	> 6.00			
C[C@H]1CN(c2nc(Oc3ccc(C(=O)N(C)C)cc3F)nc(-c3cnc(N)s3)n2)[C@@H](C)[C@@H](C)O1 [Compound 10088, 4-((4-(2-Aminothiazol-5-yl)-6-((2R,3S,6S)-2,3,6-trimethylmorpholino)-1,3,5-triazin-2-yl)-oxy)-3-fluoro-N,N-dimethylbenzamide]		< 50		
